Test results from patent publication US11413278B2, “Compounds and methods for promoting stress resistance” (priority 2015, dated 2022).
Read-outs that look alike come from different tables or passages of the source.

What was measured:
Assay type in all cases: cell-based, human
[1] = system: WI-38 cells; test: Propidium iodide (PI) cell-death imaging upon H2O2 stress; details: for cytotoxicity at 10 µM: Homo sapiens, WI-38
[2] = system: mTOR; test: mTOR inhibition (RPS6 phosphorylation status), In-Cell Western
Procedure: In-Cell Western assays were performed, following a standard immuno-staining protocol. Briefly, WI-38 cells were treated with small molecules for 24 hrs, and then processed and incubated with primary antibody cocktail (Cell Signaling, mouse anti-RPS, 1:25; rabbit-anti-pRPS6-(Ser-235/236), 1:100) overnight at 4° C. Next day, samples were processed and incubated with fluorophore-conjugated secondary antibodies (Cell Signaling, DyLight 680-goat anti-mouse, 1:500; DyLight 800-goat anti-rabbit, 1:1,000). Images were collected on an Odyssey Imager (LI-COR) and analyzed with the Image Studio Lite software (version 5.0.21).
Mammalian target of rapamycin (mTOR) is a crucial regulator of cell growth and metabolism and has been implicated in aging and many diseases, including cancer, diabetes and neurological diseases (Dazert and Hall, 2011; Zoncu et al., 2011). […] In addition, the anti-diabetes drug metformin (Kalender et al., 2010), as well as other AMPK activators such as 2-deoxy-D-glucose (Inoki et al., 2003) and AICAR (Shaw et al., 2004), could inhibit mTORC1. Applicants examined the effects of our molecules (at three doses, 5 μM, 10 μM and 20 μM) on the phosphorylation status of ribosomal protein S6 (RPS6), a readout of mTOR activity, to ask whether they could inhibit mTOR.
In-Cell Western assays were performed, following the same procedures to analyze DNA-damage markers. WI-38 cells were incubated with small molecules for 24 hrs, and then processed and incubated with primary antibody cocktail (mouse anti-RPS, 1:25; rabbit-anti-pRPS6, 1:100) overnight at 4° C. Next day, samples were processed and incubated with fluorophore-conjugated secondary antibodies (goat anti-mouse, 1:500; goat anti-rabbit, 1:1,000) in antibody dilution buffer. Images were collected on an Odyssey Imager (LI-COR) and analyzed with the Image Studio Lite software.

[3] = system: NRF2; test: in vitro
[4] = system: FOXO3; test: qPCR analysis of FOXO3-regulated genes; details: for fold induction at 10 µM: Homo sapiens
Outline: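 FOXO3 target-gene expression quantified by qPCR normalised to B2M, PPIA and GAPDH, in WI-38 cells after 24 h exposure to 10 μM compound. Some runs used cells first transfected 36 h with 10 nM FOXO3 or NRF2 siRNA and replated ~24 h before dosing.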

O=C(NCc1cccnc1)/C(=C/c1ccc(-c2ccc(Cl)cc2)o1)S(=O)(=O)c1ccccc1 [Gr-7C]
Assay 7: H2O2-resistant, at 10 uM, validated by propidium iodide (PI) cell-death imaging ([1]; 10 uM, w/H2O2, 3 hrs/4 hrs/5 hrs, YES/NO): YES
cytotoxicity at 10 µM ([1]; H2O2 3 hrs, 10 uM, n = 6, negative control 5.44% ± 0.79%, read-out: Percentage of propidium iodide-positive dead cells (under H2O2 stress treatment), 3 hrs): 0.82%
cytotoxicity at 10 µM ([1]; H2O2 4 hrs, 10 uM, n = 6, negative control 16.81% ± 1.42%, read-out: Percentage of propidium iodide-positive dead cells (under H2O2 stress treatment), 4 hrs): 2.36%
cytotoxicity at 10 µM ([1]; H2O2 5 hrs, 10 uM, n = 6, negative control 22.50% ± 1.53%, read-out: Percentage of propidium iodide-positive dead cells (under H2O2 stress treatment), 5 hrs): 3.73%
cytotoxicity at 10 µM ([1]; pre-treatment at 10 uM, 3.5 hours of H2O2, DMSO control 27.4% ± 6.5%, */**/*** = reduced by one/two/three standard deviations, read-out: Percentage of propidium iodide-positive dead cells (under H2O2 stress treatment), at 10 uM): 12.5%
G = mTOR down-regulation ([2]; 2-point score): 2
mTOR down-regulation by p-RPS6 assays ([2]; Assay 14(q), at 5 uM, 10 uM & 20 uM): YES
Exp. 1, normalized reduction in p-RPS6/RPS6 ratio ([2]; Exp. 1, In-Cell Western, n=4): ~80% (−), at 20 μM
Exp. 3, normalized reduction in p-RPS6/RPS6 ratio ([2]; Exp. 3, In-Cell Western, n=4): ~40% (−), at 20 μM
Exp. 3, normalized reduction in p-RPS6/RPS6 ratio ([2]; Exp. 3, at 5 μM, In-Cell Western, n=4): ~38% (−), at 5 μM;
mTOR inhibition (p-RPS6/RPS6), qualitative ([2]; In-Cell Western): consistently reduced the ratios
G = mTOR down-regulation ([2]; summary score): 2
Survival of NRF2 siRNA-transfected cells in the absence of H2O2 [3]: could reduce the survival
NRF2-dependency for H2O2-resistance, at 10 uM - with H2O2, 1st experiment ([3]; 10 uM, experiment 1 (1st), with H2O2): 1st, YES;
NRF2-dependency for H2O2-resistance, 1st experiment ([3]; 10 uM, with H2O2, NRF2 knockdown in WI-38 cells, YES = resistance reduced by at least 50%, partial = 25% to 50%): YES;
Assay 17: NRF2-dependency for H2O2-resistance ([3]; 10 uM, YES/NO): YES
NRF2-dependency of H2O2-resistance (NRF2 siRNA knockdown) ([3]; at least 2 of 3 independent experiments): significantly attenuate
viability of non-stressed cells, reduced by ([3]; human, 24 h, 10 uM): by 60%)
J = NRF2-dependency for H2O2-resistance ([3]; score): 1
J = NRF2-dependency for H2O2-resistance ([3]; summary score): 1
SOD2 expression, normalized fold change (FOXO3-regulated gene) ([4]; 10 μM, 24 hrs, WI-38 cells, qPCR, normalized to B2M, n = 4): SOD2 2.67, fold
E = Potential FOXO3 Activation ([4]; 2-point score): 2
Potential FOXO3 Activation (>=2 target genes induced, by >=1.5-fold) ([4]; Assay 11(n)): YES
fold induction at 10 µM ([4]; 24 h, Assay 10(m), at 10 uM, qPCR, read-out: Induction of FOXO3-regulated genes: CAT normalized fold-change): 1.43
fold induction at 10 µM ([4]; 24 h, Assay 10(m), at 10 uM, qPCR, read-out: Induction of FOXO3-regulated genes: DDB1 normalized fold-change): 1.36
fold induction at 10 µM ([4]; 24 h, Assay 10(m), at 10 uM, qPCR, read-out: Induction of FOXO3-regulated genes: GADD45A normalized fold-change): 10.9
fold induction at 10 µM ([4]; 24 h, Assay 10(m), at 10 uM, qPCR, read-out: Induction of FOXO3-regulated genes: SOD2 normalized fold-change): 2.67
fold induction at 10 µM ([4]; 24 h, Assay 10(m), at 10 uM, qPCR, read-out: Induction of FOXO3-regulated genes: TXNIP normalized fold-change): 0.07
fold induction at 10 µM ([4]; 10 μM, 24 hrs, WI-38 cells, qPCR, normalized to B2M, n = 4, read-out: CAT expression, normalized fold change (FOXO3-regulated gene)): 1.43
fold induction at 10 µM ([4]; 10 μM, 24 hrs, WI-38 cells, qPCR, normalized to B2M, n = 4, read-out: DDB1 expression, normalized fold change (FOXO3-regulated gene)): 1.36
fold induction at 10 µM ([4]; 10 μM, 24 hrs, WI-38 cells, qPCR, normalized to B2M, n = 4, read-out: GADD45A expression, normalized fold change (FOXO3-regulated gene)): 10.9
fold induction at 10 µM ([4]; 10 μM, 24 hrs, WI-38 cells, qPCR, normalized to B2M, n = 4, read-out: TXNIP expression, normalized fold change (FOXO3-regulated gene)): 0.07
fold induction at 10 µM ([4]; WI-38 cells, 10 μM, 24 hrs, n=4, qPCR normalized by B2M, read-out: DDB1 Normalized fold change): 1.36
fold induction at 10 µM ([4]; WI-38 cells, 10 μM, 24 hrs, n=4, qPCR normalized by B2M, read-out: GADD45A Normalized fold change): 10.9
fold induction at 10 µM ([4]; WI-38 cells, 10 μM, 24 hrs, n=4, qPCR normalized by B2M, read-out: SESN1 Normalized fold change): 1.28
fold induction at 10 µM ([4]; fold change, qPCR, WI-38 cells, 10 μM, 24 hrs, read-out: Summary of effects on FOXO3-regulated genes: CAT): 1.43
fold induction at 10 µM ([4]; fold change, qPCR, WI-38 cells, 10 μM, 24 hrs, read-out: Summary of effects on FOXO3-regulated genes: DDB1): 1.36
fold induction at 10 µM ([4]; fold change, qPCR, WI-38 cells, 10 μM, 24 hrs, read-out: Summary of effects on FOXO3-regulated genes: GADD45A): 10.9
fold induction at 10 µM ([4]; fold change, qPCR, WI-38 cells, 10 μM, 24 hrs, read-out: Summary of effects on FOXO3-regulated genes: TXNIP): 0.07
fold induction at 10 µM ([4]; qPCR, WI-38 cells, 10 μM, n=4, 24 hrs, normalized by B2M, read-out: CAT Normalized fold change): 1.43
fold induction at 10 µM ([4]; qPCR, WI-38 cells, 10 μM, n=4, 24 hrs, normalized by B2M, read-out: SOD2 Normalized fold change): 2.68
fold induction at 10 µM ([4]; qPCR, WI-38 cells, 10 μM, n=4, 24 hrs, normalized by B2M, read-out: TXNIP Normalized fold change): 0.068
Summary of effects on FOXO3-regulated genes: SOD2 ([4]; fold change, qPCR, WI-38 cells, 10 μM, 24 hrs): SOD2 2.67,
K = Sestrin induction ([4]; score): 0
E = Potential FOXO3 Activation ([4]; summary score): 2
